US11180488B2, “Isoxazole o-linked carbamoyl cyclohexyl acids as LPA antagonists” (BRISTOL-MYERS SQUIBB COMPANY, priority 2017, dated 2021)
pIC50: −log10 of the molar value. Where two headings read alike, the source gives them in different places.

Key:
nerve-injured mice = details: pretreatment; cited from earlier work
[1] = test system: highly peritoneal metastatic pancreatic cancer cell line; details: cited from earlier work
UUO mice = details: mouse, in vivo; cited from earlier work
CTGF = details: co-treatment, MCT cells; cited from earlier work
[2] = test system: human foetal lung fibroblasts; details: cited from earlier work
[3] = test system: pancreatic cancer cell lines; details: cited from earlier work
human LPA1 = biological target: T1, human LPA1 (Homo sapiens, UniProt Q92633); assay: LPA1 functional antagonist assay (LPA-induced calcium flux); format: cell-based; details: CHO cells overexpressing human LPA1, calcium flux induced by 10 nM LPA
T1 construct: expressed in transfected cells; host or cells: Chinese hamster ovary (CHO) cells
T1 sequence (Q92633 whole entry): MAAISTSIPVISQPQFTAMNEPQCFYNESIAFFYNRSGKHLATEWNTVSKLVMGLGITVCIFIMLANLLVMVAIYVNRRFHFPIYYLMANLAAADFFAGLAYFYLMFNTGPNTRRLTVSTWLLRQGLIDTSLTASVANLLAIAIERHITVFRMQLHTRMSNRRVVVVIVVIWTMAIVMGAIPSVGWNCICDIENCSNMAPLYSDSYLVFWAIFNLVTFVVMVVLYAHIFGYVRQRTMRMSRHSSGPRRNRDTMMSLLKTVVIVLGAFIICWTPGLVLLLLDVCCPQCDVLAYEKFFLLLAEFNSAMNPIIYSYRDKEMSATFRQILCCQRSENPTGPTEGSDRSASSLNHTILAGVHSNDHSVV
Method: The effectiveness of compounds of the present invention as LPA1 inhibitors can be determined in an LPA1 functional antagonist assay as follows:
Chinese hamster ovary cells overexpressing human LPA1 were plated overnight (15,000 cells/well) in poly-D-lysine coated 384-well microplates (Greiner bio-one, Cat #781946) in DMEM/F12 medium (Gibco, Cat #11039). Following overnight culture, cells were loaded with calcium indicator dye (AAT Bioquest Inc, Cat #34601) for 30 minutes at 37° C. The cells were then equilibrated to room temperature for 30 minutes before the assay. Test compounds solubilized in DMSO were transferred to 384 well non-binding surface plates (Corning, Cat #3575) using the Labcyte Echo acoustic dispense and diluted with assay buffer [1×HBSS with calcium/magnesium (Gibco Cat #14025-092), 20 mM HEPES (Gibco Cat #15630-080) and 0.1% fatty acid free BSA (Sigma Cat #A9205)] to a final concentration of 0.5% DMSO. Diluted compounds were added to the cells by FDSS6000 (Hamamatsu) at final concentrations ranging from 0.08 nM to 5 μM. and were then incubated for 20 min at room temperature at which time LPA (Avanti Polar Lipids Cat #857130C) was added at final concentrations of 10 nM to stimulate the cells. […] IC50 values were determined by fitting data to a 4-parameter logistic equation (GraphPad Prism, San Diego Calif.).

IPF patients = details: 26-week clinical trial; cited from earlier work

pIC50 (human LPA1; read-out: hLPA1 IC50)	Compound	also measured
7.64	Cc1noc(-c2ccc(O[C@H]3CCC[C@H](C(=O)O)C3)cc2)c1COC(=O)N(C)CCC1CC1 [Example 27]	–
8.10	Cc1nc(-c2onc(C)c2COC(=O)N(C)CCC(C)C)ccc1O[C@H]1CCC[C@H](C(=O)O)C1 [Example 20]	–
6.33	Cc1noc(-c2ccc(O[C@@H]3CCC[C@@H](C(=O)O)C3)cc2)c1COC(=O)N(C)CCC1CCCC1 [Example 28]	–
6.40	Cc1nc(-c2onc(C)c2COC(=O)N(C)Cc2cccc(Cl)c2)ccc1O[C@H]1CCC[C@H](C(=O)O)C1 [Example 17]	–
7.70	Cc1noc(-c2ccc(O[C@H]3CCC[C@H](C(=O)O)C3)cn2)c1COC(=O)N(C)[C@H](C)C1CC1 [Example 42]	–
7.85	Cc1nc(-c2onc(C)c2COC(=O)N(C)C2CCCC2)ccc1O[C@H]1CCC[C@H](C(=O)O)C1 [Example 12]	–
7.34	Cc1noc(-c2ccc(O[C@H]3CCC[C@H](C(=O)O)C3)cn2)c1COC(=O)N(C)[C@@H](C)C1CC1 [Example 41]	–
7.54	Cc1nc(-c2onc(C)c2COC(=O)N(C)CC2CCCC2)ccc1O[C@H]1CCC[C@H](C(=O)O)C1 [Example 21]	–

Continued, molecule first:

Compound	pIC50 (human LPA1; read-out: hLPA1 IC50)	also measured
C[C@@H](N)[C@H]1CC[C@H](C(=O)Nc2ccncc2)CC1 [Example Y-27632]	–	allodynia and hyperalgesia (nerve-injured mice): completely abolished
Cc1noc(-c2ccc(CSCCC(=O)O)cc2)c1NC(=O)OC(C)c1ccccc1Cl (stereo not shown) [Ki16425]	–	LPA-induced and ascites-induced invasion activity [1]: blocked; renal fibrosis profile of treated UUO mice (UUO mice): closely resembled the profile of LPA1 (−/−) mice; induction of CTGF expression by LPA (CTGF): almost completely suppressed; chemotaxis of human foetal lung fibroblasts induced by BAL from IPF patients [2]: blocked; fibroblast chemotactic activity in bronchoalveolar lavage samples of IPF subjects [2]: inhibited; in vitro migration in response to LPA and peritoneal fluid (ascites) [3]: effectively blocked
Cc1noc(-c2ccc(O[C@H]3CCC[C@H](C(=O)O)C3)cc2)c1COC(=O)N(C)CCC(C)(C)C [Example 30]	7.22	–
Cc1noc(-c2ccc(-c3ccc(C4(C(=O)O)CC4)cc3)cc2)c1NC(=O)O[C@H](C)c1ccccc1 [BMS-986020]	–	rate of FVC (forced vital capacity) decline (IPF patients): significantly reduce
Cc1noc(-c2ccc(OC3CCCC(c4nnn[nH]4)C3)cc2)c1COC(=O)N(C)C1CCCC1 (single isomer, unassigned) [Example 77, (5-(4-((3-(1H-tetrazol-5-yl)cyclohexyl)oxy)phenyl)-3-methylisoxazol-4-yl)methyl cyclopentyl(methyl)carbamate]	6.42	–
COCC(C)N(C)C(=O)OCc1c(C)noc1-c1ccc(O[C@@H]2CCC[C@@H](C(=O)O)C2)cc1 (stereo partly shown) [Example 67]	6.17	–
COC(C)CN(C)C(=O)OCc1c(C)noc1-c1ccc(O[C@@H]2CCC[C@@H](C(=O)O)C2)cc1 (stereo partly shown) [Example 71]	5.79	–
Cc1cc(-c2onc(C)c2COC(=O)N(C)C2CCCC2)ccc1O[C@H]1CCC[C@H](C(=O)O)C1 [Example 64]	–	pIC50 (human LPA1; read-out: LPA1 IC50): 7.28
Cc1nc(-c2onc(C)c2COC(=O)N(C)[C@H](C)c2ccccc2)ccc1O[C@H]1CCC[C@H](C(=O)O)C1 [Example 62]	–	pIC50 (human LPA1; read-out: LPA1 IC50): 7.77
Cc1noc(-c2cnc(O[C@H]3CCC[C@H](C(=O)O)C3)cn2)c1COC(=O)N(C)CCC(C)C [Example 56]	–	pIC50 (human LPA1; read-out: LPA1 IC50): 6.82
Cc1noc(-c2ccc(OC3CCCC(C#N)C3)cc2)c1COC(=O)N(C)C1CCCC1 (mixture of isomers) [Example 74, (5-(4-((3-cyanocyclohexyl)oxy)phenyl)-3-methylisoxazol-4-yl)methyl cyclopentyl(methyl)carbamate]	5.49	–
Cc1onc(-c2ccc(O[C@H]3CCC[C@H](C(=O)O)C3)nc2)c1COC(=O)N(C)C1CCCC1 [Example 54, (1S,3S)-3-((5-(4-(((cyclopentyl(methyl)carbamoyl)oxy)methyl)-5-methylisoxazol-3-yl)pyridin-2-yl)oxy)cyclohexane-1-carboxylic Acid]	6.71	–
Cc1noc(-c2ccc(O[C@H]3CCC[C@H](C(=O)O)C3)cn2)c1COC(=O)N(C)C(C1CC1)C1CC1 [Example 57]	–	pIC50 (human LPA1; read-out: LPA1 IC50): 7.59
Cc1noc(-c2ccc(O[C@@H]3CCC[C@](C)(C(=O)O)C3)cc2)c1COC(=O)N(C)C1CCCC1 (racemic) [Example 7, (±)-Cis-3-(4-(4-(((cyclopentyl(methyl)carbamoyl)oxy)methyl)-3-methylisoxazol-5-yl)phenoxy)-1-methylcyclohexanecarboxylic Acid]	5.66	–
Cc1noc(-c2ccc(O[C@H]3CCC[C@H](C(=O)O)C3)cc2)c1COC(=O)N1C[C@H]2C[C@H]2C1 [Example 35]	5.91	–
